According to patent publication US20250064789A1, “KETOAMIDE DERIVATIVES AND PHARMACEUTICAL USES THEREOF” (priority 2022, published 2025):

Experiments:
Assay type in all cases: cell-based
[1] = system: SARS-CoV-2 (B.1.1.529) BA.1 mutant strains; assay: Antiviral activity at the cellular level by RT-qPCR in Vero E6-TMPRSS2 cells
[2] = system: SARS-CoV-2 Alpha (B.1.1.7) mutant strains; assay: Antiviral activity by plaque method in Vero E6-TMPRSS2 cells: SARS-CoV-2 Alpha
[3] = system: SARS-CoV-2 Beta (B.1.351) mutant strains; assay: Antiviral activity by plaque method in Vero E6-TMPRSS2 cells: SARS-CoV-2 Beta

Compound	inhibitory activity on replication of SARS-CoV-2 (B.1.1.529) in Vero E6-TMPRSS2 cells (in words) [1]	anti-viral activity, times higher than Nirmatrelvir (PF-07321332) [2] [times]	anti-viral activity, times higher than Nirmatrelvir (PF-07321332) [3] [times]
COC[C@@H](NC(=O)C1CCCC(F)(F)C1)C(=O)N[C@H](Cc1ccccc1)C(=O)C(=O)NCc1nccs1 (stereo partly drawn) [Compound 398, N—((R)-1-(((R)-3,4-dioxo-1-phenyl-4-((thiazole-2-ylmethyl)amino)butan-2-yl)amino)-3-methoxy-1-oxopropan-2-yl)-3,3-difluorocyclohexane-1-formamide]	better inhibitory activity	40.95	10.16
COC[C@@H](NC(=O)C1CCC(F)(F)CC1)C(=O)N[C@H](Cc1ccccc1)C(=O)C(=O)NCc1nccs1 [Compound 395]	better inhibitory activity		
